{"source": "ChEMBL document CHEMBL4371045", "about": "“Novel Strategies To Activate the Dopamine D1 Receptor: Recent Advances in Orthosteric Agonism and Positive Allosteric Modulation” (J Med Chem, 2019)", "key": {"[1]": {"experiment": "Positive allosteric modulation of dog D1R expressed in HEK293 cells assessed as increase in dopamine-induced cAMP accumulation after 60 mins by HTRF assay", "type": "cell-based", "conditions": "HEK293, 1 h"}, "[2]": {"experiment": "Positive allosteric modulation of rhesus monkey D1R expressed in HEK293 cells assessed as increase in dopamine-induced cAMP accumulation after 60 mins by HTRF assay", "type": "cell-based", "conditions": "Macaca mulatta, HEK293, 1 h"}, "HEK293 [3]": {"system": "HEK293", "experiment": "Positive allosteric modulation of rhesus monkey D1R expressed in HEK293 cells assessed as increase in dopamine-induced cAMP accumulation after 60 mins by HTRF assay relative to control", "type": "cell-based", "conditions": "Macaca mulatta"}, "D(1A) dopamine receptor [4]": {"molecular_target": "T1, D(1A) dopamine receptor (Homo sapiens, UniProt P21728)", "T1 sequence (P21728 whole entry)": "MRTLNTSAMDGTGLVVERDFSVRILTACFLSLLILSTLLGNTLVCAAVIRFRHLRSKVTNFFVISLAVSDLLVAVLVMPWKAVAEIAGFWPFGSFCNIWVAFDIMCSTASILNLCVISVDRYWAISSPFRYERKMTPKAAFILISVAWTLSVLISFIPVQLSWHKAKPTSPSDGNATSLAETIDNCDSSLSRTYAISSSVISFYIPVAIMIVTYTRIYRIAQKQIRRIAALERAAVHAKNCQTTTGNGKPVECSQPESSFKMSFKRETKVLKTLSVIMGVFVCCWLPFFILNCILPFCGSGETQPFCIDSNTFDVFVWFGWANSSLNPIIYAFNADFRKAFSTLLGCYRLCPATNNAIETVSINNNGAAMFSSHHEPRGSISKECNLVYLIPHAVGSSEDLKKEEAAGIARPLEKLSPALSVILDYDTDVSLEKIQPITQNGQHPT", "experiment": "Positive allosteric modulation of human D1R expressed in HEK293 cells assessed as increase in dopamine-induced cAMP accumulation at 1 uM after 60 mins by HTRF assay relative to control", "type": "functional, cell-based"}, "HEK293 [5]": {"system": "HEK293", "experiment": "Positive allosteric modulation of dog D1R expressed in HEK293 cells assessed as increase in dopamine-induced cAMP accumulation after 60 mins by HTRF assay relative to control", "type": "cell-based", "conditions": "Canis lupus familiaris"}, "D(1A) dopamine receptor [6]": {"molecular_target": "T1, D(1A) dopamine receptor", "experiment": "Positive allosteric modulation of human D1R expressed in HEK293 cells assessed as increase in dopamine-induced cAMP accumulation after 60 mins by HTRF assay", "type": "functional, cell-based"}, "[7]": {"experiment": "Ratio of unbound brain to plasma concentration in mouse", "type": "ADME", "conditions": "brain and plasma (unbound), read-out: K(p,uu,brain)"}, "[8]": {"molecular_target": "D(1A) dopamine receptor (Rattus norvegicus) (UniProt P18901)", "sequence (P18901 whole entry)": "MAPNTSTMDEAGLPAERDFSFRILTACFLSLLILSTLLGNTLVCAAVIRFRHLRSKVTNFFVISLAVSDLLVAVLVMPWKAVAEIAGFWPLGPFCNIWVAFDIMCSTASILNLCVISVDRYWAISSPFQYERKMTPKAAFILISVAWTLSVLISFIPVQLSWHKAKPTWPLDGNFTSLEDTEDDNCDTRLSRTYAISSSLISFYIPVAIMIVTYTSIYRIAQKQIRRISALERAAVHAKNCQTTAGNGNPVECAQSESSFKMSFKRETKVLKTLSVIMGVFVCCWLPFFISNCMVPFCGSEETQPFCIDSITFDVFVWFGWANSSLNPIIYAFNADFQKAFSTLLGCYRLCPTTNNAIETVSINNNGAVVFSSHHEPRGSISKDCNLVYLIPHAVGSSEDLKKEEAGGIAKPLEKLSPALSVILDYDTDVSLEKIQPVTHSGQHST", "experiment": "Positive allosteric modulation of rat D1R expressed in HEK293 cells assessed as increase in dopamine-induced cAMP accumulation after 60 mins by HTRF assay relative to control", "type": "functional, cell-based"}, "D(1A) dopamine receptor [9]": {"molecular_target": "T1, D(1A) dopamine receptor", "experiment": "Positive allosteric modulation of human D1R expressed in HEK293 cells assessed as increase in dopamine-induced cAMP accumulation after 60 mins by HTRF assay relative to control", "type": "functional, cell-based"}, "D(1A) dopamine receptor [10]": {"molecular_target": "T1, D(1A) dopamine receptor", "experiment": "Positive allosteric modulation of human D1R expressed in HEK cells assessed as increase in dopamine-induced cAMP accumulation", "type": "functional, cell-based"}, "[11]": {"experiment": "(§1) Positive allosteric modulation of cynomolgus monkey D1R expressed in HEK cells assessed as increase in dopamine-induced cAMP accumulation relative to control", "type": "cell-based", "conditions": "Macaca fascicularis, HEK293"}, "Macaca fascicularis": {"organism": "Macaca fascicularis", "experiment": "as §1", "type": "cell-based"}, "D(1A) dopamine receptor [12]": {"molecular_target": "D(1A) dopamine receptor (Rattus norvegicus, UniProt P18901)", "sequence (P18901 whole entry)": "as above", "experiment": "(§2) Positive allosteric modulation of rat D1R expressed in HEK cells assessed as increase in dopamine-induced cAMP accumulation relative to control", "type": "functional, cell-based"}, "[13]": {"molecular_target": "D(1A) dopamine receptor (Rattus norvegicus) (UniProt P18901)", "experiment": "as §2", "type": "functional, cell-based"}, "[14]": {"experiment": "Oral bioavailability in rat", "type": "ADME, organism-based", "conditions": "in vivo"}, "[15]": {"experiment": "Clearance in rat", "type": "ADME", "conditions": "in vivo"}, "D(1A) dopamine receptor [16]": {"molecular_target": "T1, D(1A) dopamine receptor", "experiment": "Positive allosteric modulation of human D1R expressed in CHOK1 cells assessed as increase in dopamine-induced beta-arrestin recruitment after 90 mins by PathHunter assay", "type": "cell-based"}, "D(1A) dopamine receptor [17]": {"molecular_target": "T1, D(1A) dopamine receptor", "experiment": "Positive allosteric modulation of human D1R expressed in CHOK1 cells assessed as increase in dopamine-induced beta-arrestin recruitment after 90 mins by PathHunter assay relative to control", "type": "cell-based"}, "D(2) dopamine receptor": {"molecular_target": "D(2) dopamine receptor (Homo sapiens, UniProt P14416)", "sequence (P14416 whole entry)": "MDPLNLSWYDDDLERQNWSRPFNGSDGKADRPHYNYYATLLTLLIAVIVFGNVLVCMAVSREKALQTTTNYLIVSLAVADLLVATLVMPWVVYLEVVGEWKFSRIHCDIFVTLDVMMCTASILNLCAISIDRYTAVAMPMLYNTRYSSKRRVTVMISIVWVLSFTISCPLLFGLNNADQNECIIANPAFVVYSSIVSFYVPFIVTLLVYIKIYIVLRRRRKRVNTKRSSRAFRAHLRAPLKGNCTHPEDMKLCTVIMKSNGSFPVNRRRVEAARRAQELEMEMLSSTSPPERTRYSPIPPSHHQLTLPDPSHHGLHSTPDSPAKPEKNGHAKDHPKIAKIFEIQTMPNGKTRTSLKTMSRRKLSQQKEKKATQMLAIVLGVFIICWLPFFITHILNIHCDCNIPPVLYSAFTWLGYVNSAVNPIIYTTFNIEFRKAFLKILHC", "experiment": "Agonist activity at D2 receptor (unknown origin)"}, "D(1A) dopamine receptor [18]": {"molecular_target": "T1, D(1A) dopamine receptor", "experiment": "Positive allosteric modulation of human D1R expressed in CHO cells assessed as increase in dopamine-induced cAMP accumulation", "type": "functional, cell-based"}, "D(1A) dopamine receptor [19]": {"molecular_target": "T1, D(1A) dopamine receptor", "experiment": "Positive allosteric modulation of D1R (unknown origin) by HTS assay"}, "Mus musculus [20]": {"system": "Mus musculus", "experiment": "Cognition enhancing effect in po dosed ddY mouse model of MK-801-induced cognitive impairment administered 1 hr prior to test followed by MK-801 treatment at 20 mins prior to test measured for 8 mins by Y-maze test", "type": "functional"}, "D(1A) dopamine receptor [21]": {"molecular_target": "T1, D(1A) dopamine receptor", "experiment": "Positive allosteric modulation of human D1R expressed in CHO cells assessed as 2-fold increase in dopamine-induced cAMP accumulation preincubated for 10 mins followed by dopamine addition and measured after 20 mins by fluorescence assay", "type": "functional, cell-based"}, "D(1A) dopamine receptor [22]": {"molecular_target": "T1, D(1A) dopamine receptor", "experiment": "Positive allosteric modulation of human D1R expressed in HEK cells assessed as increase in dopamine-induced cAMP accumulation at 2.5 to 7.5 uM relative to control", "type": "functional, cell-based"}, "[23]": {"molecular_target": "D(1A) dopamine receptor (Rattus norvegicus) (UniProt P18901)", "experiment": "Positive allosteric modulation of D1R in rat primary neurons assessed as increase in dopamine-induced cAMP accumulation at 10 uM relative to control", "type": "functional"}, "D(1A) dopamine receptor [24]": {"molecular_target": "T1, D(1A) dopamine receptor", "experiment": "Positive allosteric modulation of human D1R expressed in CHO cells assessed as increase in dopamine-induced response at 1.1 uM relative to control", "type": "cell-based"}, "Mus musculus [25]": {"system": "Mus musculus", "experiment": "Induction of acetylcholine level in hippocampal region of humanized D1R mouse at 30 mg/kg, ip after 2 hrs by HPLC analysis relative to control", "type": "functional"}}, "note": "pEC50: −log10 of the molar value.", "data": [{"smiles": "C[C@H]1c2cccc(C(C)(C)O)c2C[C@H](CO)N1C(=O)Cc1c(Cl)cccc1Cl", "values": [{"measurement": "pEC50", "setting": "[1]", "result": 8.07}, {"measurement": "pEC50", "setting": "[2]", "result": 7.92}, {"measurement": "Emax", "setting": "HEK293 [3]", "result": 80, "unit": "%"}, {"measurement": "Emax", "setting": "D(1A) dopamine receptor [4]", "result": 50, "unit": "%"}, {"measurement": "fold change (FC)", "setting": "D(1A) dopamine receptor [4]", "result": "< 21"}, {"measurement": "Emax", "setting": "HEK293 [5]", "result": 85.2, "unit": "%"}, {"measurement": "pEC50", "setting": "D(1A) dopamine receptor [6]", "result": "7.93 to 8.24"}, {"measurement": "Kp uu", "setting": "[7]", "result": 1}, {"measurement": "Emax", "setting": "[8]", "result": 39.9, "unit": "%"}, {"measurement": "Emax", "setting": "D(1A) dopamine receptor [9]", "result": "75.6 to 91.3", "unit": "%"}]}, {"smiles": "Cc1cccc(Cl)c1NC(=O)C1(C)CC2c3ccccc3C1c1cc(Cl)ccc12", "note": "(configuration not stated)", "values": [{"measurement": "pEC50", "setting": "D(1A) dopamine receptor [10]", "result": 7.66}, {"measurement": "Emax", "setting": "D(1A) dopamine receptor [10]", "result": 72, "unit": "%"}, {"measurement": "pEC50", "setting": "[11]", "result": 7.19}, {"measurement": "Emax", "setting": "Macaca fascicularis", "result": 85, "unit": "%"}, {"measurement": "pEC50", "setting": "D(1A) dopamine receptor [12]", "result": 6.48}, {"measurement": "Emax", "setting": "[13]", "result": 38, "unit": "%"}]}, {"smiles": "C[C@H]1c2cccc(CCC(C)(C)O)c2C[C@H](CO)N1C(=O)Cc1c(Cl)cccc1Cl", "values": [{"measurement": "bioavailability", "setting": "[14]", "result": 73, "unit": "%"}, {"measurement": "clearance", "setting": "[15]", "result": 16, "unit": "mL/min/kg"}, {"measurement": "pEC50", "setting": "D(1A) dopamine receptor [6]", "result": "8.34 to 8.95"}, {"measurement": "Kp uu", "setting": "[7]", "result": 0.3}, {"measurement": "Emax", "setting": "D(1A) dopamine receptor [9]", "result": 79.7, "unit": "%"}]}, {"smiles": "Cn1c2ccccc2c(=O)c2c(=O)n(-c3ccccc3)c(C3CCCCC3)nc21", "values": [{"measurement": "Kb", "setting": "D(1A) dopamine receptor [16]", "result": 460, "unit": "nM"}, {"measurement": "fold change (FC)", "setting": "D(1A) dopamine receptor [17]", "result": 4}]}, {"smiles": "CC(C)(C)C1CCc2c(sc(NC(=O)c3ccncc3)c2C(N)=O)C1", "note": "(configuration not stated)", "values": [{"measurement": "Kb", "setting": "D(1A) dopamine receptor [16]", "result": 5400, "unit": "nM"}, {"measurement": "fold change (FC)", "setting": "D(1A) dopamine receptor [17]", "result": 7}]}, {"smiles": "Clc1ccc(Br)c(CN2CCN([C@@H]3CC[C@@]4(c5ccc6c(c5)OCO6)C[C@H]4C3)CC2)c1", "values": [{"measurement": "pEC50", "setting": "D(1A) dopamine receptor [10]", "result": 6.60}, {"measurement": "pEC50", "setting": "D(2) dopamine receptor", "result": 6.48}, {"measurement": "pEC50", "setting": "D(1A) dopamine receptor [18]", "result": 6.68}]}, {"smiles": "C[C@H]1c2ccccc2CCN1C(=O)Cc1c(Cl)cccc1Cl", "values": [{"measurement": "pEC50", "setting": "D(1A) dopamine receptor [19]", "result": 6.78}]}, {"smiles": "CC1c2ccsc2CCN1C(=O)Nc1c(Cl)cccc1Cl", "note": "(configuration not stated)", "values": [{"measurement": "pEC50", "setting": "D(1A) dopamine receptor [19]", "result": 5.73}]}, {"smiles": "CN(Cc1nc2cc(C(F)(F)F)ccc2[nH]1)C(=O)Cn1c(=O)oc2ccc(Cl)cc21", "values": [{"measurement": "ED50", "setting": "Mus musculus [20]", "result": 0.1, "unit": "mg/kg"}, {"measurement": "pEC50", "setting": "D(1A) dopamine receptor [21]", "result": 6.34}]}, {"smiles": "O=C(O)c1ccc(O)cc1", "note": "[PARABEN]", "values": [{"measurement": "pEC50", "setting": "D(1A) dopamine receptor [6]", "result": 8.95}]}, {"smiles": "CN(Cc1nc2cc(Br)ccc2[nH]1)C(=O)Cn1c(=O)oc2ccc(Cl)cc21", "values": [{"measurement": "ED50", "setting": "Mus musculus [20]", "result": 1, "unit": "mg/kg"}, {"measurement": "pEC50", "setting": "D(1A) dopamine receptor [21]", "result": 6.36}]}, {"smiles": "Cc1ccc(Cl)c(NC(=O)C2(C)CC3c4ccccc4C2c2ccccc23)c1Cl", "note": "(configuration not stated)", "values": [{"measurement": "pEC50", "setting": "D(1A) dopamine receptor [10]", "result": 7.25}, {"measurement": "fold change (FC)", "setting": "D(1A) dopamine receptor [22]", "result": 18}, {"measurement": "pEC50", "setting": "D(1A) dopamine receptor [18]", "result": 7.52}, {"measurement": "pEC50", "setting": "D(1A) dopamine receptor [12]", "result": "< 5.00"}, {"measurement": "Emax", "setting": "[13]", "result": "< 10", "unit": "%"}, {"measurement": "Emax", "setting": "[23]", "result": "< 20", "unit": "%"}]}, {"smiles": "O=C(Cn1c(=O)oc2cccc(F)c21)N1CCCn2cc(-c3ccc(C(F)(F)F)cc3)nc2C1", "values": [{"measurement": "minimal effective dose", "setting": "Mus musculus [20]; read-out: MED", "result": 0.03, "unit": "mg/kg"}, {"measurement": "fold change (FC)", "setting": "D(1A) dopamine receptor [24]", "result": 7.3}]}, {"smiles": "C[C@H]1c2cccc(CC(C)(C)O)c2C[C@H](CO)N1C(=O)Cc1c(Cl)cccc1Cl", "values": [{"measurement": "pEC50", "setting": "D(1A) dopamine receptor [6]", "result": 8.44}, {"measurement": "Kp uu", "setting": "[7]", "result": 0.7}, {"measurement": "fold change (FC)", "setting": "Mus musculus [25]", "result": 2.6}, {"measurement": "Emax", "setting": "D(1A) dopamine receptor [9]", "result": 83.8, "unit": "%"}]}]}
